Reference: US5236937A, “Pyridinyl compounds which are useful as angiotensin II antagonists” (Imperial Chemical Industries PLC, priority 1991, dated 1993)

System: angiotensin II-induced pressor responses
Assay: Test C: inhibition of angiotensin II-induced pressor responses in terminally-anaesthetised or conscious rats
Format: in vivo
Settings: iv, rat, i.v. administration
Text: The antagonism of one or more of the physiological actions of AII and, in particular, the antagonism of the interaction of AII with the receptors which mediate its effects on a target tissue, may be assessed using one or more of the following, routine laboratory procedures: Test C: This in vivo test involves using terminally-anaesthetised or conscious rats in which an arterial catheter has been implanted under anaesthesia for the measurement of changes in blood pressure. The AII antagonistic effects of the test compound following oral or parenteral administration, are assessed against angiotensin II-induced pressor responses. To ensure that the effect is specific, the effect of the test compound on vasopressin-induced pressor responses may also be determined in the same preparation.

Cc1cc(NCc2ccc(-c3ccccc3-c3nnn[nH]3)cc2)c(I)c(C)n1.Cl [Example 1, 2,6-dimethyl-3-iodo-4-[(2'-(1H-tetrazol-5-yl)biphenyl-4-yl)methylamino]pyridine hydrochloride]
ED50: 0.047 mg/kg
